Where a name gives a salt, the structure may show the parent alone.
These molecules were tested on ATGL-KO iPSCs (assay: High throughput iPSC chemical screening, Oil Red O (ORO) lipid accumulation). Settings: not given.
Format: cell-based, mouse
Molecule C[n+]1ccccc1/C=N/O [Pralidoxime chloride] has a Z-score of 1.281. In the case of CNC(=O)Oc1ccc2c(c1)[C@]1(C)CCN(C)[C@@H]1N2C.CNC(=O)Oc1ccc2c(c1)[C@]1(C)CCN(C)[C@@H]1N2C.O=S(=O)(O)O [Eserine sulfate, physostigmine sulfate], the Z-score is reported as 0.899.

Same assay, conditions: glycolytic switch compounds
With C(=C\c1ccccc1)/CN1CCN(C(c2ccccc2)c2ccccc2)CC1 [Cinnarizine] the “Rank in normalized ORO score from screen” value was 44. For O=C1NCN(c2ccccc2)C12CCN(CCCC(c1ccc(F)cc1)c1ccc(F)cc1)CC2 [Fluspirilen, reference compound], the “Rank in normalized ORO score from screen” value was 40. In the case of [H]/N=C(/N)N/C(=N/[H])NCCc1ccccc1 [Phenformin hydrochloride], the “Rank in normalized ORO score from screen” value is reported as 524.

Same assay, conditions: normalized ORO level vs DMSO-treated cells; compound present during 7 days differentiation, 96-well; negative = decrease in lipid accumulation
For CO[C@H]1C[C@H](O[C@H]2[C@H](C)[C@@H](O[C@@H]3O[C@H](C)C[C@H](N(C)C)[C@H]3O)[C@@H](C)C[C@@]3(CO3)C(=O)[C@H](C)[C@@H](O)[C@@H](C)[C@@H](C)OC(=O)[C@@H]2C)O[C@@H](C)[C@@H]1O [Oleandomycin phosphate], the Z-score was 0.5069. CC[C@H](CC[C@@H](C)[C@H]1CC[C@H]2[C@@H]3CC=C4C[C@@H](O)CC[C@]4(C)[C@H]3CC[C@]12C)C(C)C [Beta-sistosterol] showed a Z-score of −0.8867. Molecule Cc1ccc(/C(=C\CN2CCCC2)c2ccccn2)cc1 [Triprolidine hydrochloride] has a Z-score of −1.0644. Colistin sulfate gave a Z-score of −0.5041. In the case of CO[C@H](C)[C@](O)(C(=O)OCC1=CCN2CC[C@H](O)[C@@H]12)C(C)C [Heliotrine], the Z-score is reported as −1.2812. In the case of CN1CCC(=C2c3ccccc3Sc3ccccc32)CC1 [Pimethixene maleate], the Z-score is reported as −0.4872. In the case of O=C(NCCNCC(O)COc1ccc(O)cc1)N1CCOCC1 (stereo not drawn) [Xamoterol hemifumarate], the Z-score is reported as −0.1402. CCN(CC)CCOC(=O)C(c1ccccc1)c1ccccc1 [Adiphenine hydrochloride] showed a Z-score of 0.801. COCC(=O)Nc1c(I)c(C(=O)NCC(O)CO)c(I)c(C(=O)N(C)CC(O)CO)c1I (stereo not drawn) [Iopromide] was tested, and the Z-score was 0.2481. With CCN(CC)CCOC(=O)C1(C2CCCCC2)CCCCC1 [Dicyclomine hydrochloride, reference compound] the Z-score was −2.1533. O=C(O)Cc1ccccc1Nc1c(Cl)cccc1Cl [Diclofenac sodium] gave a Z-score of −1.137. With COc1ccc2cc(CCC(C)=O)ccc2c1 [Nabumetone] the Z-score was −0.6754. N=C(N)NC(=O)Cc1c(Cl)cccc1Cl [Guanfacine hydrochloride] showed a Z-score of −0.0783. With C/C=C(/C(=C/C)c1ccc(O)cc1)c1ccc(O)cc1 [Dienestrol] the Z-score was 0.1268. With CN1CCN2c3ccccc3Cc3ccccc3C2C1 (stereo not drawn) [Mianserine hydrochloride] the Z-score was −1.3517. CCCCOC(=O)c1ccc(N)cc1 [Butamben] was tested, and the Z-score was 0.2903. In the case of NS(=O)(=O)c1cc(C(=O)O)c(NCc2ccco2)cc1Cl [Furosemide], the Z-score is reported as 0.5074. CNCC(O)c1ccc(OC(=O)C(C)(C)C)c(OC(=O)C(C)(C)C)c1 (stereo not drawn) [Dipivefrin hydrochloride] gave a Z-score of 1.363. CCC(=O)OCC(=O)[C@@]1(OC(=O)CC)[C@H](C)C[C@H]2[C@H]3[C@H]([C@@H](O)C[C@@]21C)[C@@]1(C)C=CC(=O)C=C1C[C@H]3Cl [Alclometasone dipropionate] showed a Z-score of 0.9375. With CN1[C@@H](CC(=O)c2ccccc2)CCC[C@H]1C[C@H](O)c1ccccc1.Cl [Lobeline alpha (−) hydrochoride] the Z-score was −0.5438. CC(C)(C)NC(=O)[C@@H]1C[C@@H]2CCCC[C@@H]2CN1C[C@@H](O)[C@H](Cc1ccccc1)NC(=O)[C@H](CC(N)=O)NC(=O)c1ccc2ccccc2n1 [Saquinavir mesylate] showed a Z-score of 1.027. Molecule CNC(=C[N+](=O)[O-])NCCSCc1csc(CN(C)C)n1 [Nizatidine] has a Z-score of −0.1369. O=C1CC2(CCCC2)CC(=O)N1CCCCN1CCN(c2ncccn2)CC1 [Buspirone hydrochloride] gave a Z-score of −0.0845. Nc1ccc(O)c(C(=O)O)c1 [Mesalamine] showed a Z-score of −0.1803. For CC[C@@H]1C(=O)OC[C@@H]1Cc1cncn1C [Pilocarpine nitrate], the Z-score was −0.2819. Work on C[N+](C)(C)CCOC(N)=O [Carbachol] yielded a Z-score of 0.7384. Work on c1ccc2c(CC3=NCCN3)cccc2c1 [Naphazoline hydrochloride] yielded a Z-score of −0.8458. COc1ccc2c(c1O)-c1c(OC)c(OC)cc3c1[C@H](C2)N(C)CC3 [Isocorydine (+)] showed a Z-score of −0.7668. Tyloxapol gave a Z-score of 0.9571. In the case of Lycorine hydrochloride, the Z-score is reported as 21.7885. Work on CC(C)NCC(O)COc1cccc2[nH]ccc12 (stereo not drawn) [Pindolol] yielded a Z-score of 0.03656. With Cn1c(-c2ccc3c(c2)OCO3)cc(=O)c2ccccc21 [Graveoline] the Z-score was −1.0242. Work on CNCC(O)c1ccc(O)cc1 (racemic) [(+,−)-Synephrine] yielded a Z-score of −1.0448. In the case of NCc1ccc(S(N)(=O)=O)cc1 [Mafenide hydrochloride], the Z-score is reported as 0.8468. In the case of C[C@]12CC[C@@H]3c4ccc(O)cc4CC[C@H]3[C@@H]1CCC2=O [Estrone], the Z-score is reported as −1.8166. CC(C)n1c(/C=C/C(O)CC(O)CC(=O)O)c(-c2ccc(F)cc2)c2ccccc21 (stereo not drawn) [Fluvastatin sodium salt] showed a Z-score of 9.993. Cotinine (−) showed a Z-score of 0.644. NC(=O)NC1NC(=O)NC1=O (stereo not drawn) [Allantoin] gave a Z-score of 0.8256. In the case of CCC1(c2ccccc2)C(=O)NCNC1=O [Primidone], the Z-score is reported as −0.0045. Molecule CC(C)[C@@]1(NC(=O)[C@@H]2C[C@@H]3c4cccc5[nH]cc(c45)C[C@H]3N(C)C2)O[C@@]2(O)[C@@H]3CCCN3C(=O)[C@H](Cc3ccccc3)N2C1=O [Dihydroergocristine mesylate] has a Z-score of 0.9157. With C(=C\c1ccccc1)/CN1CCN(C(c2ccccc2)c2ccccc2)CC1 [Cinnarizine] the Z-score was −1.6064. Work on CC(C[N+](C)(C)C)OC(N)=O (stereo not drawn) [Bethanechol chloride] yielded a Z-score of −0.3853. O=C1NCN(c2ccccc2)C12CCN(CCCC(c1ccc(F)cc1)c1ccc(F)cc1)CC2 [Fluspirilen, reference compound] showed a Z-score of −1.6301. NS(=O)(=O)c1cc2c(cc1Cl)N=CNS2(=O)=O [Chlorothiazide] gave a Z-score of −0.1987. Molecule [H]/N=C(/N)N/C(=N/[H])NCCc1ccccc1 [Phenformin hydrochloride] has a Z-score of −0.2777. CC(C)(C(=O)c1cccnc1)c1cccnc1 [Metyrapone] was tested, and the Z-score was −1.7744. For CC[C@H](C)C(=O)O[C@H]1C[C@@H](C)C=C2C=C[C@H](C)[C@H](CC[C@@H]3C[C@@H](O)CC(=O)O3)[C@H]21 [Lovastatin], the Z-score was 6.935. CC(C)COCC(CN(Cc1ccccc1)c1ccccc1)N1CCCC1 (stereo not drawn) [Bepridil hydrochloride] gave a Z-score of −1.7961. CC[C@H](C)[C@H]1O[C@]2(CC[C@@H]1C)C[C@@H]1C[C@@H](C/C=C(\C)[C@@H](O[C@H]3C[C@H](OC)[C@@H](O[C@H]4C[C@H](OC)[C@@H](O)[C@H](C)O4)[C@H](C)O3)[C@@H](C)/C=C/C=C3\CO[C@@H]4[C@H](O)C(C)=C[C@@H](C(=O)O1)[C@]34O)O2 [Ivermectin] gave a Z-score of 0.9419. Cn1c(=O)c2[nH]cnc2n(C)c1=O [Aminophylline] gave a Z-score of −1.0552. In the case of CC(=O)[C@H]1CC[C@H]2[C@@H]3C=CC4=CC(=O)CC[C@@]4(C)[C@@H]3CC[C@]12C [Dydrogesterone], the Z-score is reported as −0.7044. CC(C)(C)C(=O)OCOC(=O)[C@@H]1N2C(=O)[C@@H](/N=C/N3CCCCCC3)[C@H]2SC1(C)C [Pivmecillinam hydrochloride] showed a Z-score of −0.219. Molecule CCN(CC)CC#CCOC(=O)C(O)(c1ccccc1)C1CCCCC1 (stereo not drawn) [Oxybutynin chloride] has a Z-score of −1.0993. With C[C@@H]1C[C@H]2[C@@H]3C[C@H](F)C4=CC(=O)C=C[C@]4(C)[C@@]3(Cl)[C@@H](O)C[C@]2(C)[C@H]1C(=O)COC(=O)C(C)(C)C [Clocortolone pivalate] the Z-score was 1.217. With CC(C)(C)NCC(O)COc1cccc2c1CC(O)C(O)C2 (stereo not drawn) [Nadolol] the Z-score was −1.7201. CN(C)C(=O)C(CCN1CCC(O)(c2ccc(Cl)cc2)CC1)(c1ccccc1)c1ccccc1 [Loperamide hydrochloride] was tested, and the Z-score was −0.1814. C=C1C/C(=C/C)C(=O)O[C@@H]2CCN3CC=C(COC(=O)[C@]1(C)O)[C@H]23 [Seneciphylline] gave a Z-score of −1.7519. COc1cc(CNC(=O)CCCC/C=C/C(C)C)ccc1O [Capsaicin] was tested, and the Z-score was 0.3383. Molecule COc1c2occc2cc2ccc(=O)oc12 [Methoxy-8-psoralen] has a Z-score of 1.942. In the case of COc1ccc2cc([C@@H](C)C(=O)[O-])ccc2c1.[Na+] [(R)-Naproxen sodium salt], the Z-score is reported as 2.243. For CCOC(=O)[C@H](CCc1ccccc1)N[C@@H](C)C(=O)N1CCC[C@H]1C(=O)O [Enalapril maleate], the Z-score was 0.1645. Nc1nc(N)c2nc(-c3ccccc3)c(N)nc2n1 [Triamterene] was tested, and the Z-score was −1.3039. With CCCNC(C)C(=O)Nc1ccccc1C (stereo not drawn) [Prilocaine hydrochloride] the Z-score was −1.2624. C[C@H]1[C@H](C)CC[C@]2(C(=O)O)CC[C@]3(C)C(=CC[C@@H]4[C@@]5(C)CC[C@H](O)C(C)(C)[C@@H]5CC[C@]43C)[C@H]12 [Ursolic acid] showed a Z-score of −0.1541. CC(=O)CCCCn1c(=O)c2c(ncn2C)n(C)c1=O [Pentoxifylline] showed a Z-score of −1.1547. Work on CN1CCN(C2=Nc3cc(Cl)ccc3Nc3ccccc32)CC1 [Clozapine] yielded a Z-score of 0.4154. Work on CCN(CC)C(=S)SSC(=S)N(CC)CC [Disulfiram] yielded a Z-score of 15.5036. For C=CC1=C(C(=O)O)N2C(=O)[C@@H](NC(=O)/C(=N\OCC(=O)O)c3csc(N)n3)[C@H]2SC1 [Cefixime], the Z-score was 1.521. Work on CC1CCc2cc(F)cc3c(=O)c(C(=O)O)cn1c23 (stereo not drawn) [Flumequine] yielded a Z-score of −0.8648. CCC(Cc1c(I)cc(I)c(N)c1I)C(=O)O (stereo not drawn) [Iopanoic acid] showed a Z-score of −0.7767. With COc1cccc2c1C(=O)c1c(O)c3c(c(O)c1C2=O)C[C@@](O)(C(C)=O)C[C@@H]3O[C@H]1C[C@H](N)[C@H](O)[C@H](C)O1 [Daunorubicin hydrochloride] the Z-score was 28.7571. CCN1C[C@]2(COC)CC[C@H](O)[C@]34C1[C@@](O)([C@@H](OC)[C@H]23)[C@@]1(O)C[C@H](OC)[C@H]2C[C@@H]4[C@@H]1[C@H]2OC [Delsoline] gave a Z-score of −1.3301. CC#C[C@]1(O)CC[C@H]2[C@@H]3CCC4=CC(=O)CCC4=C3[C@@H](c3ccc(N(C)C)cc3)C[C@@]21C [Mifepristone] showed a Z-score of −0.6348.
Wherever Z-score is given: test concentration or dose not given here.
